# Laboratory results as given in patent US20060269924A1, “Modulation of telomere-initiated cell signaling” (TRUSTEES OF BOSTON UNIVERSITY, priority 2003, published 2006).
# {P} = phosphate
# How the values were obtained:
# [1] = system: HT-1080 human fibrosarcoma cells; test: Clonogenic assay; type: cell-based; conditions: HT-1080, 40 μM for one week, then replated 2 weeks without treatment
# Method: Cells were treated with diluent, 40 μM T-oligo or complementary oligo for one week, and then assayed. FIG. 15a: Appearance of stained dishes. FIG. 15b: Quantification of clonogenic capacity. Colonies of triplicate cultures were counted and plotted as percentage of diluent treated control.
# Human fibrosarcoma cells were treated with diluent alone, 40 μM T-oligo or 40 μM complementary oligo for one week and were then trypsinized and counted. 300 cells were seeded into 60 mm culture dishes in triplicate and then incubated in complete medium for 2 weeks with medium changed twice per week. Subsequently, the cells were fixed for 5 min in 100% methanol. The methanol was then removed and the culture dishes were rinsed briefly with water. The colonies were stained for 10 min in 4% (w/v) methylene blue solution in PBS, washed once again with water, and then counted.
# To determine the long-term effect of T-oligo treatment on cell growth, HT-1080 human fibrosarcoma cells were treated with either diluent alone, 40 μM T-oligo or 40 μM complementary control oligo for one week and then an equal number of cells were replated and medium was changed twice per week for 2 weeks with no further treatment, and then stained with methylene blue (FIG. 15a).
# [2] = system: HT-1080 fibrosarcoma cells; test: Telomere length (mean TRF length) assay; type: cell-based, human; conditions: HT-1080 cells, 40 μM, 4 days
# Method: Cells were treated as described in FIG. 13a. Lanes 1, 2, 3 contain genomic DNA from cells treated with diluent (D), T-oligo (T), or complementary oligo (C). Lanes 4 and 5 contain high (H) molecular and low (L) molecular weight standard telomeric DNA.
# HT-1080 fibrosarcoma cells were treated with diluent, 40 μM T-oligo or 40 μM complementary oligo for 4 days and then the genomic DNA was isolated using the DNeasy Tissue Kit (Qiagen, Valencia, Calif.). Telomere length was determined using the Telo TTAGGG Telomere Length Assay (Roche Molecular Biochemicals, Indianapolis, Ind.) following the protocol supplied by the manufacturer. […] Terminal restriction fragments (TRF) were detected by chemiluminescence. The mean TRF length was calculated by scanning the exposed X-ray film with a densitometer and calculated as previously described (Harley et al. [1990] Telomeres shorten during ageing of human fibroblasts. Nature 345, 458-460).
# To determine the affect of T-oligos on the mean telomere length (MTL) in HT-1080 cells, cells were analyzed after treatment with T-oligo for 4 days which corresponded to the time that the senescent phenotype was readily observed. […] The less than 100 bp difference in calculated MTL is within the range of experimental variation and is not significant.
# [3] = system: human fibrosarcoma HT-1080 cells; test: SA-β-Gal staining, HT-1080 cells; type: cell-based; conditions: HT-1080 cells, 40 μM, 4 days
# Method: (§1) FIG. 13a: Exposure to T-oligo increases SA-β-Gal activity. HT-1080 cells were treated for 4 days with diluent alone or 40 μM T-oligo or the complementary control oligo, then stained and assayed for SA-β-Gal activity. FIG. 13b: Quantitative analysis of SA-β-Gal positive cells. Cells expressing SA-β-Gal activity were counted and presented as percentage of total cells in the cultures. Averages and standard deviations were calculated from 3 representative fields from each of 3 independent experiments. FIG. 13c: Effect of T-oligo on cell proliferation. Cells were treated for 4 days as in FIG. 12 and assayed for DNA synthesis by BrdU incorporation. FIG. 13d: Quantitative analysis of BrdU incorporation. Dark black nuclei indicate BrdU incorporated into nuclear DNA. BrdU positive cells were calculated and presented as percentage of total cells in the cultures. Averages and standard deviations were calculated from 3 representative fields from each of 3 independent experiments. FIG. 13e: Effect of T-oligo on pRb phosphorylation. Cells were treated as in FIG. 13a and were then collected for protein analysis by western blot using 30 μg total protein and probed for pRb-ser780*, ser795* and ser807/811* (pRb phosphorylated at serine 780, serine 795 and serine 807/811 respectively). Lanes D, T and C contain protein samples from cells treated with diluent, T-oligo and complementary oligo respectively. β-actin was used as a loading control.
# Parallel cultures were treated as described in FIG. 13a. Cells were then washed once with PBS and refed with complete medium without additional treatment for 24 hours or 48 hours. FIG. 14a: SA-β-Gal activity. Cells were stained for SA-β-Gal activity. […]
# TRF2^DN has been reported to induce a senescent phenotype in human fibrosarcoma HT-1080 cells. To determine whether exposure to the telomere 3′ overhang DNA (T-oligo) also induces senescence in these cells, HT-1080 cells (American Type Culture Collection; Manassas, Va.) were treated with either diluent alone, T-oligo or the complementary oligo as a control, for 4 days and then assessed for SA-β-Gal activity. […]
# [4] = system: HT-1080 fibrosarcoma cells; test: BrdU incorporation assay, HT-1080 cells; type: cell-based, human; conditions: HT-1080 cells, 40 μM, 4 days
# Method: as §1
# Parallel cultures were treated as described in FIG. 13a. Cells were then washed once with PBS and refed with complete medium without additional treatment for 24 hours or 48 hours. FIG. 14a: SA-β-Gal activity. […]
# HT-1080 fibrosarcoma cells cultured on Permanox chamber slides were treated with diluent, 40 μM T-oligo or 40 μM complementary oligo for 4 days and DNA synthesis was assayed using 5-bromo-2′-deoxy-uridine (BrdU) Labeling and Detection Kit II (Roche Molecular Biochemicals, Indianapolis, Ind.) following the protocol supplied by the manufacturer. […] After incubation with anti-mouse-Ig-alkaline phosphatase, the color reaction was detected by light microscopy. […]
# [5] = system: p95 phosphorylated at serine 343; test: p95 serine 343 phosphorylation after tankyrase siRNA, western blotting and densitometry; type: cell-based, human; conditions: 24 hours
# Method: Paired cultures of human fibroblasts were treated once with tankyrase siRNA, with a non-specific siRNA (control) or were mock transfected as a second control. […] After an additional 24 hours, cells were collected and processed for western blotting using an antibody specific for p95 phosphorylated at serine 343, indicating p95 modification by activated ATM kinase. The film was then subjected to densitometry and the diluent control for each group of cells was set at 1.0 in arbitrary units (FIG. 19). As expected, in cells with normal tankyrase levels the T-oligo treated cells had twice the amount of phosphorylated p95, while the control oligo-treated or diluent-treated cells had only a 30-40% increase.
# S91 mouse melanoma cells = test: Melanin content of S91 melanoma cells; type: cell-based; conditions: 100 μM
# Method: Cultures of S91 mouse melanoma cells (100,000 cells/38 cm^2) were treated with 100 μM pTpT or phosphorothioate pTpT (pTspT) (FIG. 4) or 40 μM 11mer-1 or the phosphorothioate 11mer-1 (11mer-1-S) (FIG. 5) for 6 days and were then collected, counted and assayed for melanin content.
# (§2) Duplicate cultures of S91 cells (100,000 cells/39 cm^2) were either sham-irradiated or irradiated with 5 mJ/cm^2 solar-simulated light from a 1 kW xenon arc solar-simulator (XMN 1000-21, Optical Radiation, Azuza, Calif.) metered at 285±5 nm using a research radiometer (model IL1700A, International Light, Newburyport, Mass.). Two sham-irradiated plates were then supplemented with 100 μM pTspT and two irradiated cultures were similarly treated with pTspT. After one week, cells were collected, counted and analyzed for melanin content by dissolving the cell pellets in 1 N NaOH and measuring the optical density at 475 nm. […] However, this response was blocked by the addition of pTspT (FIG. 6). In addition, the constitutive pigmentation of these cells was reduced by the pTspT in the sham-irradiated cultures, similar to the data presented in FIGS. 4 and 5.
# S91 cells = test: UV-induced melanogenesis in S91 cells; type: cell-based, mouse; conditions: 5 mJ/cm^2 solar-simulated light, 100 μM, one week
# Method: as §2
# [6] = system: p53 serine 15 phosphorylation and p21 induction in response to TRF2^DN; test: PARP inhibitors and response to TRF2^DN, western analysis; type: cell-based; conditions: neonatal fibroblasts, AdTRF2DN, 3 days; 3AB 2.5 mM or IQ 100 μM
# Method: The graphs show densitometric readings of the western blots, with diluent control set at 100%. FIG. 9f: Lane 1, diluent, GFP; lane 2, diluent TRF2DN; lane 3, 3AB, GFP; lane 4, 3AB, TRF2DN; lane 5, IQ, GFP; lane 6, IQ, TRF2DN.
# Neonatal fibroblasts were treated with AdTRF2DN or AdGFP as a negative control. Two hours before infection, cells were treated with either diluent 3AB (2.5 mM) or IQ (100 μM). After 3 days cells were collected for western analysis for the c-myc-tagged TRF2DN (to confirm infection), p53 serine 15 phosphorylation and p21 induction.
# [7] = system: T-oligo-induced total p53, p21, p53 serine 15 phosphorylation; test: PARP inhibitor pretreatment and T-oligo responses, western blot; type: cell-based; conditions: fibroblasts, 40 μM T-oligo, 48 hours; 3AB 2.5 mM or IQ 100 μM
# Method: To investigate the role of PARPs in responses to T-oligo, fibroblasts were pretreated with one of two different PARP inhibitors, 3-aminobenzamide (3AB, 2.5 mM) or […] (IQ, 100 μM) for 2 hours before addition of 40 μM T-oligo or an equal amount of diluent as a control. An additional dose of each inhibitor was given to the cells 4 hours after addition of the T-oligo or diluent (D). Fibroblasts were treated with 3AB and T-oligo, then collected 48 hours later for western blot. T-oligo-induced upregulation of total p53, p21, phosphorylation of p53 serine 15 (indicating p53 activation) were all reduced in the presence of 3AB (FIG. 17A).
molecule,measurement,setting,value
"pCTAACCCTAAC (DNA, 5' {P}, backbone and methylation of C not given here; listed as Homo sapiens) [Oligonucleotide 11mer-2, reference compound]",clonogenic capacity,[1],90.5±9.4 % of diluent treated control
same,mean telomere length (MTL),[2],5.51 kb
same,SA-β-Gal positive cells,[3],6±3%
same,BrdU incorporation (BrdU positive cells),[4],85±10%
same,increase in phosphorylated p95,[5]; human fibroblasts with normal tankyrase levels,30-40%
same,"level of p95 phosphorylation (densitometry, diluent control set at 1.0)",[5]; tankyrase knockdown group (tankyrase siRNA),1.3 arbitrary units
pTpT,melanogenesis (melanin content),S91 mouse melanoma cells; 6 days,stimulated melanogenesis
pTspT,constitutive pigmentation,S91 mouse melanoma cells; 6 days,reduced the constitutive pigmentation
same,melanogenesis (melanin content),S91 mouse melanoma cells; 6 days,did not
same,constitutive pigmentation,"S91 mouse melanoma cells; sham-irradiated, one week",reduced
same,UV-induced doubling of melanin content,S91 cells,blocked
"NC(=O)c1cccc(N)c1 [Oligonucleotide 3AB, 3-aminobenzamide]",p21 induction in response to TRF2^DN,[6],reduced
same,p53 phosphorylation in response to TRF2^DN,[6],reduced
same,T-oligo-induced phosphorylation of p53 serine 15,[7],reduced
same,T-oligo-induced upregulation of p21,[7],reduced
same,T-oligo-induced upregulation of total p53,[7],reduced
